The values below come from ChEMBL document CHEMBL1146953, “Carbonic anhydrase inhibitors: cloning and sulfonamide inhibition studies of a carboxyterminal truncated alpha-carbonic anhydrase from Helicobacter pylori” (Bioorg Med Chem Lett, 2006).

Usually Ki stands for a measure of affinity in units of concentration, obtained from inhibition or displacement. Low values mean higher affinity, high ones lower affinity.

The target in the first assay is carbonic anhydrase (Helicobacter pylori, UniProt O25798).
Sequence of carbonic anhydrase (O25798 1-202): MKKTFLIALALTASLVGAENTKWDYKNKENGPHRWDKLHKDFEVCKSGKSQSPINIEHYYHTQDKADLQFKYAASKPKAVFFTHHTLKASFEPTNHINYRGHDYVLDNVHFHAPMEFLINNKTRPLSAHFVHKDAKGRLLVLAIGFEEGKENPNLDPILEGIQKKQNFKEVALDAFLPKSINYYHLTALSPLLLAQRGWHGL
Description: (§1) Inhibition of Helicobacter pylori recombinant CA
In the case of `NNc1ccccc1S(N)(=O)=O`, the inhibitory constant (Ki) worked out at 0.562 µM.
`Nc1ccc(S(=O)(=O)NCc2ccc(S(N)(=O)=O)cc2)cc1` showed an inhibition constant Ki of 0.124 µM.
In turn, `Nc1cc(Cl)c(S(N)(=O)=O)cc1S(N)(=O)=O` registered a Ki of 0.041 µM.
With `Nc1ccc(S(N)(=O)=O)cc1I`, the inhibitory constant (Ki) is 0.504 µM.
On the same count and under the same terms, the figure for `Nc1ccc(S(=O)(=O)Nc2nnc(S(N)(=O)=O)s2)cc1` is 0.213 µM; for `NS(=O)(=O)c1nnc(-c2ccccc2Cl)s1` it is 0.084 µM; for `Nc1nccc(Nc2ccc(S(N)(=O)=O)cc2)n1` it is 0.072 µM.
On the same count and under the same terms, then `NS(=O)(=O)c1nc2ccc(O)cc2s1`, with 0.174 µM; and `Nc1ccc(S(N)(=O)=O)cc1Br`, with 0.463 µM; and `Cn1nc(S(N)(=O)=O)sc1=N`, with 0.494 µM.
The same measure, in the same setting: the figure for `NS(=O)(=O)c1ccc(CCO)cc1` is 1.16 µM; for `Nc1ccc(S(N)(=O)=O)cc1F` it is 1.31 µM; for `NS(=O)(=O)c1ccc(CO)cc1` it is 0.87 µM.
`NCCc1ccc(S(N)(=O)=O)cc1` showed a Ki of 1.03 µM.
On to `Nc1ccc(S(N)(=O)=O)cc1Cl`, for which affinity was put at a Ki of 0.395 µM.
On to `Nc1ccc(S(=O)(=O)NCCc2ccc(S(N)(=O)=O)cc2)cc1`, for which the Ki was 0.096 µM.
In turn, `NS(=O)(=O)c1ccc(S(=O)(=O)Nc2cccc3c(Cl)c[nH]c23)cc1` returned a Ki of 0.434 µM.
On the same count and under the same terms, then `Nc1cc(C(F)(F)F)c(S(N)(=O)=O)cc1S(N)(=O)=O` [2,4-DISULFAMYLTRIFLUOROMETHYLANILINE], with 0.402 µM.
On the same count and under the same terms, then `NS(=O)(=O)c1nnc(NS(=O)(=O)c2ccccc2)s1` [BENZOLAMIDE], with 0.287 µM.
Take `CCN[C@H]1CN(CCCOC)S(=O)(=O)c2sc(S(N)(=O)=O)cc21` [BRINZOLAMIDE]: the inhibition constant Ki turned out to be 0.246 µM.
On to `NS(=O)(=O)c1ccc(C(=O)O)cc1` [CARZENIDE], for which affinity was put at a Ki of 1.08 µM.
On the same count and under the same terms, then `CCOc1ccc2nc(S(N)(=O)=O)sc2c1` [ETHOXZOLAMIDE], with 0.155 µM; and `NCc1ccc(S(N)(=O)=O)cc1` [MAFENIDE], with 0.83 µM; and `Cc1ccc(S(N)(=O)=O)cc1` [P-TOLUENESULFONAMIDE], with 0.473 µM.
Same read-out and setting: then `Nc1ccc(S(N)(=O)=O)cc1` [SULFANILAMIDE], with 0.431 µM.

The next assay concerns the target T1, Carbonic anhydrase (Helicobacter pylori (strain ATCC 700392 / 26695) (Campylobacterpylori), UniProt O24855).
T1 sequence (O24855 whole entry): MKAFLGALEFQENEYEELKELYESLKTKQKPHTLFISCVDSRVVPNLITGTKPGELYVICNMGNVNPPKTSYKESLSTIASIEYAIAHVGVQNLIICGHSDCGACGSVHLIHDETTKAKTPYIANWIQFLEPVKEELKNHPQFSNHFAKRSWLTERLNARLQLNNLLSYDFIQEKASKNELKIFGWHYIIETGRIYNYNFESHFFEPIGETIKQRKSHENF
Description: as §1
With `CC1(C)O[C@@H]2[C@@H](CO[C@@]3(COS(N)(=O)=O)OC(C)(C)O[C@@H]23)O1` [TOPIRAMATE], the affinity corresponds to a Ki of 0.205 µM.
